Results as given in ChEMBL document CHEMBL1201862, “PubChem BioAssay data set” (2004).
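Cells were grown in 96-well plates and exposed to each compound for 48 hours at five concentrations; endpoints were interpolated linearly between bracketing concentrations, or set to the highest concentration if not reached. GI50 = concentration required for 50% inhibition of growth.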 Calls of active or inactive are those of the source. Rule as the data show it: active = GI50 up to about 1.1 µM and inactive = higher.

Assays:
Assay in all cases: inhibition of tumour cell growth, NCI panel, 48 h
[1] = test system: 786-0
[2] = test system: A498
[3] = test system: A549
[4] = test system: ACHN
[5] = test system: CAKI-1
[6] = test system: CCRF-CEM
[7] = test system: COLO 205
[8] = test system: DLD-1
[9] = test system: DMS-114
[10] = test system: DMS-273
[11] = test system: EKVX
[12] = test system: HCC 2998
[13] = test system: HCT-116
[14] = test system: HCT-15
[15] = test system: HL-60
[16] = test system: HOP-18
[17] = test system: HOP-62
[18] = test system: HOP-92
[19] = test system: HT-29
[20] = test system: IGROV-1
[21] = test system: K562
[22] = test system: KM-20L2
[23] = test system: KM12
[24] = test system: LXFL 529
[25] = test system: M14
[26] = test system: M19-MEL
[27] = test system: MOLT-4
[28] = test system: Malme-3M
[29] = test system: NCI-H226
[30] = test system: NCI-H23
[31] = test system: NCI-H460
[32] = test system: NCI-H522
[33] = test system: OVCAR-3
[34] = test system: OVCAR-4
[35] = test system: OVCAR-5
[36] = test system: OVCAR-8
[37] = test system: RPMI-8226
[38] = test system: RXF 393
[39] = test system: SF-268
[40] = test system: SF-295
[41] = test system: SF-539
[42] = test system: SK-MEL-2
[43] = test system: SK-MEL-5
[44] = test system: SK-OV-3
[45] = test system: SN12C
[46] = test system: SNB-19
[47] = test system: SNB-75
[48] = test system: SNB-78
[49] = test system: SR
[50] = test system: SW-620
[51] = test system: TK-10
[52] = test system: U-251
[53] = test system: UACC-257
[54] = test system: UACC-62
[55] = test system: UO-31
[56] = test system: XF498
[57] = test system: RXF 631
[58] = test system: SK-MEL-28
[59] = test system: LOX IMVI

## CC(C)=CC(=O)Oc1ccc([N+](=O)[O-])cc1
[1]
  GI50: > 100 µM (inactive)
[2]
  GI50: > 100 µM (inactive)
[3]
  GI50: > 100 µM (inactive)
[4]
  GI50: > 100 µM (inactive)
[5]
  GI50: 20.7 µM (inactive)
[6]
  GI50: > 100 µM (inactive)
[7]
  GI50: > 100 µM (inactive)
[8]
  GI50: > 100 µM (inactive)
[9]
  GI50: > 100 µM (inactive)
[10]
  GI50: > 100 µM (inactive)
[11]
  GI50: > 100 µM (inactive)
[12]
  GI50: > 100 µM (inactive)
[13]
  GI50: > 100 µM (inactive)
[14]
  GI50: > 100 µM
[15]
  GI50: 24.7 µM (inactive)
[16]
  GI50: > 100 µM (inactive)
[17]
  GI50: > 100 µM (inactive)
[18]
  GI50: > 100 µM (inactive)
[19]
  GI50: > 100 µM (inactive)
[20]
  GI50: > 100 µM (inactive)
[21]
  GI50: > 100 µM (inactive)
[22]
  GI50: > 100 µM (inactive)
[23]
  GI50: 38.3 µM (inactive)
[24]
  GI50: > 100 µM (inactive)
[25]
  GI50: > 100 µM (inactive)
[26]
  GI50: > 100 µM (inactive)
[27]
  GI50: > 100 µM (inactive)
[28]
  GI50: > 100 µM (inactive)
[29]
  GI50: > 100 µM (inactive)
[30]
  GI50: > 100 µM (inactive)
[31]
  GI50: > 100 µM (inactive)
[32]
  GI50: 2.18 µM (inactive)
[33]
  GI50: > 100 µM (inactive)
[34]
  GI50: > 100 µM (inactive)
[35]
  GI50: > 100 µM (inactive)
[36]
  GI50: > 100 µM (inactive)
[37]
  GI50: > 100 µM (inactive)
[38]
  GI50: > 100 µM (inactive)
[39]
  GI50: > 100 µM (inactive)
[40]
  GI50: > 100 µM (inactive)
[41]
  GI50: > 100 µM (inactive)
[42]
  GI50: > 100 µM (inactive)
[43]
  GI50: > 100 µM (inactive)
[44]
  GI50: > 100 µM (inactive)
[45]
  GI50: > 100 µM (inactive)
[46]
  GI50: > 100 µM (inactive)
[47]
  GI50: > 100 µM (inactive)
[48]
  GI50: > 100 µM (inactive)
[49]
  GI50: > 100 µM (inactive)
[50]
  GI50: > 100 µM (inactive)
[51]
  GI50: > 100 µM (inactive)
[52]
  GI50: > 100 µM (inactive)
[53]
  GI50: > 100 µM (inactive)
[54]
  GI50: > 100 µM (inactive)
[55]
  GI50: > 100 µM (inactive)
[56]
  GI50: > 100 µM (inactive)

## CC(C)c1ccc(C2C3=C(N=C4SCC(=O)N42)C(=O)c2ccccc23)cc1 (stereo not drawn)
[1]
  GI50: > 100 µM (inactive)
[2]
  GI50: > 100 µM (inactive)
[3]
  GI50: 58.9 µM (inactive)
[4]
  GI50: 73.1 µM (inactive)
[5]
  GI50: 99.1 µM (inactive)
[6]
  GI50: 57.3 µM (inactive)
[7]
  GI50: > 100 µM (inactive)
[8]
  GI50: 81.8 µM (inactive)
[9]
  GI50: 53.5 µM (inactive)
[10]
  GI50: > 100 µM (inactive)
[11]
  GI50: 77.3 µM (inactive)
[12]
  GI50: > 100 µM (inactive)
[13]
  GI50: 70.6 µM (inactive)
[14]
  GI50: 88.9 µM
[15]
  GI50: 36 µM (inactive)
[17]
  GI50: > 100 µM (inactive)
[18]
  GI50: 15.7 µM (inactive)
[19]
  GI50: > 100 µM (inactive)
[20]
  GI50: > 100 µM (inactive)
[21]
  GI50: 54 µM (inactive)
[22]
  GI50: > 100 µM (inactive)
[23]
  GI50: > 100 µM (inactive)
[24]
  GI50: 52.4 µM (inactive)
[25]
  GI50: > 100 µM (inactive)
[26]
  GI50: 83.4 µM (inactive)
[27]
  GI50: 49.7 µM (inactive)
[28]
  GI50: > 100 µM (inactive)
[29]
  GI50: 51.4 µM (inactive)
[30]
  GI50: 75.3 µM (inactive)
[31]
  GI50: > 100 µM (inactive)
[32]
  GI50: 22.4 µM (inactive)
[33]
  GI50: 60 µM (inactive)
[34]
  GI50: 43.4 µM (inactive)
[35]
  GI50: > 100 µM (inactive)
[36]
  GI50: > 100 µM (inactive)
[37]
  GI50: 43.3 µM (inactive)
[57]
  GI50: > 100 µM (inactive)
[39]
  GI50: 37.1 µM (inactive)
[40]
  GI50: 82.8 µM (inactive)
[41]
  GI50: > 100 µM (inactive)
[58]
  GI50: 35.1 µM (inactive)
[42]
  GI50: > 100 µM (inactive)
[43]
  GI50: 52.6 µM (inactive)
[44]
  GI50: > 100 µM (inactive)
[45]
  GI50: 41 µM (inactive)
[46]
  GI50: 64.9 µM (inactive)
[47]
  GI50: 22.3 µM (inactive)
[50]
  GI50: > 100 µM (inactive)
[51]
  GI50: > 100 µM (inactive)
[52]
  GI50: 74 µM (inactive)
[53]
  GI50: > 100 µM (inactive)
[54]
  GI50: 33.7 µM (inactive)
[55]
  GI50: 5.6 µM (inactive)
[56]
  GI50: 87.3 µM (inactive)

## Cc1cc(NS(=O)(=O)c2ccc(NC(=O)c3cccc4c(N)c5ccccc5nc34)cc2)no1
[1]
  GI50: 17.9 µM (inactive)
[2]
  GI50: 19.4 µM (inactive)
[3]
  GI50: > 100 µM (inactive)
[4]
  GI50: 20 µM (inactive)
[5]
  GI50: 34.8 µM (inactive)
[6]
  GI50: 21.4 µM (inactive)
[7]
  GI50: 22.6 µM (inactive)
[8]
  GI50: 30.6 µM (inactive)
[9]
  GI50: 22.2 µM (inactive)
[10]
  GI50: 19.2 µM (inactive)
[11]
  GI50: 90.8 µM (inactive)
[13]
  GI50: 14.5 µM (inactive)
[14]
  GI50: 33 µM
[17]
  GI50: 29.6 µM (inactive)
[19]
  GI50: 27.9 µM (inactive)
[20]
  GI50: 27.5 µM (inactive)
[21]
  GI50: 31.2 µM (inactive)
[22]
  GI50: 34.1 µM (inactive)
[23]
  GI50: 18.9 µM (inactive)
[59]
  GI50: 23.4 µM (inactive)
[24]
  GI50: 32 µM (inactive)
[25]
  GI50: 27.5 µM (inactive)
[26]
  GI50: 21.2 µM (inactive)
[27]
  GI50: 28.9 µM (inactive)
[28]
  GI50: 30.9 µM (inactive)
[29]
  GI50: 17.7 µM (inactive)
[30]
  GI50: 21.8 µM (inactive)
[31]
  GI50: 32.9 µM (inactive)
[32]
  GI50: 17 µM (inactive)
[33]
  GI50: 21.7 µM (inactive)
[34]
  GI50: 27.3 µM (inactive)
[35]
  GI50: 28.8 µM (inactive)
[36]
  GI50: 21.8 µM (inactive)
[37]
  GI50: 24 µM (inactive)
[38]
  GI50: 16.3 µM (inactive)
[57]
  GI50: 18.4 µM (inactive)
[39]
  GI50: 21 µM (inactive)
[40]
  GI50: 23.6 µM (inactive)
[41]
  GI50: 21.1 µM (inactive)
[58]
  GI50: 22.1 µM (inactive)
[42]
  GI50: 18.7 µM (inactive)
[43]
  GI50: > 10 µM (inactive)
[44]
  GI50: 32.5 µM (inactive)
[45]
  GI50: 19.2 µM (inactive)
[46]
  GI50: 17.4 µM (inactive)
[47]
  GI50: 68.7 µM (inactive)
[48]
  GI50: 27.5 µM (inactive)
[50]
  GI50: 30 µM (inactive)
[51]
  GI50: 43.1 µM (inactive)
[52]
  GI50: 26.6 µM (inactive)
[54]
  GI50: 28 µM (inactive)
[55]
  GI50: 33.3 µM (inactive)
[56]
  GI50: 21.8 µM (inactive)
